Experimental findings from US20250303006A1, “BIOCOMPATIBLE ANTISEPTIC COMPOSITION CONTAINING 9-HYDROXYCALABAXANTHONE AND/OR RELATED XANTHONES” (UNIVERSITAT DE LES ILLES BALEARS, priority 2022, published 2025) are described below.

One experiment deals with C. albicans. The experiment in a line: Candida albicans culture and proliferation assay. Format: cell-based. The following applies: 0.003% HCX, 24 h. Here is the method: C. albicans was grown from frozen stocks in LB broth (Scharlab), at 37° C. under aerobic conditions in an orbital shaker (180 rpm). […] Fungal suspension without treatment served as negative control (C−). […] The fungal growth rate (μ) was calculated during the exponential growth phase following the equation ln ODt−ln OD0=μ×(t−t0) (n=3).

The test system of the next experiment is S. pyogenes. The experiment in a line: S. pyogenes culture and proliferation assay. Format: cell-based, Streptococcus pyogenes. The following applies: 0.0002% HCX, 24 h. Here is the method:
S. pyogenes was grown from frozen stocks in Tryptic Soy Broth (TSB) (Scharlab), at 37° C. under aerobic conditions in an orbital shaker (180 rpm). After overnight incubation, 1 mL of bacterial suspensions were incubated with different concentrations of CHX (0.01, 0.005, 0.003, 0.001, 0.0001%) and HCX (0.003, 0.002, 0.001, 0.0002, 0.00002%) for 24 hours at 37° C. under aerobic conditions in an orbital shaker (180 rpm). Bacterial suspension without treatment served as negative control (C−). The optical density (OD) was measured at 600 nm at 0 h and 24 h to determine bacterial proliferation (PowerWave Ht). The bacterial growth rate (μ) was calculated during the exponential growth phase following the equation ln ODt−ln OD0=μ×(t−t0) (n=4). The live/Dead ratio of bacteria was determined using the LIVE/DEAD BacLight bacterial viability kit (Invitrogen), following the manufacturer's instructions. The assays were carried out in triplicate.

Each structure is given as a SMILES string.

With `COc1c(O)cc2oc3cc4c(c(O)c3c(=O)c2c1CC=C(C)C)C=CC(C)(C)O4` [HCX, 9-hydroxycalabaxanthone], the fungal eliminated in the experiment on C. albicans is 22%. The molecule also displayed a bacteria eliminated in the experiment with S. pyogenes of 100%.
